Consider 20 molecules from ChEMBL document CHEMBL3091423, “Synthesis, antioxidant capacity, and structure-activity relationships of tri-O-methylnorbergenin analogues on tyrosinase inhibition” (Bioorg Med Chem Lett, 2013).

pIC50, pKi: −log10 of the molar value.

Experiment [1] has as its target T1, Tyrosinase (Agaricus bisporus, UniProt O42713).
T1 sequence (O42713 whole entry): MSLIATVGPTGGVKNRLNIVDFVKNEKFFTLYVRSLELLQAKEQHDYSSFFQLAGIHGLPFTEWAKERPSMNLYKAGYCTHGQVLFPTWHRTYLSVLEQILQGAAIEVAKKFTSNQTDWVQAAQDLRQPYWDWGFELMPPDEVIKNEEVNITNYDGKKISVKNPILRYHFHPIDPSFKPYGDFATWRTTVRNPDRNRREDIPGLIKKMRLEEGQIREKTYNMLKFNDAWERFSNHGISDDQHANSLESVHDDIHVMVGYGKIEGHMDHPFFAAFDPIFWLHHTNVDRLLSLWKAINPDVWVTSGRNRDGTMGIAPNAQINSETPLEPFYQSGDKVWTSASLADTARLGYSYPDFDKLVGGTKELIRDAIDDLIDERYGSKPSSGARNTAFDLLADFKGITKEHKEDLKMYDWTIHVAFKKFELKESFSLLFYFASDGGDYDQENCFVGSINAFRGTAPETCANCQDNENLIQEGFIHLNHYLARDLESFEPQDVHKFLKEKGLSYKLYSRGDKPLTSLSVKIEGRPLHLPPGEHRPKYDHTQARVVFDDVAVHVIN
Description: (§1) Inhibition of mushroom tyrosinase using L-tyrosine as substrate preincubated for 10 mins followed by enzyme addition measured after 20 mins by microplate reader analysis

Experiment [2] addresses T1, Tyrosinase. The experiment can be described thus: Inhibition of mushroom tyrosinase using L-tyrosine as substrate by Dixon plot analysis.
Experiment [3] has as its target T1, Tyrosinase. The experiment can be described thus: Mixed inhibition of mushroom tyrosinase using L-tyrosine as substrate by Dixon/Cornish-Bowden plot analysis.
The target in experiment [4] is T2, Tyrosinase (Agaricus bisporus) (UniProt O42713).
T2 sequence (whole entry): T1 sequence (O42713 whole entry)
Description: as §1

Experiment [5] addresses T1, Tyrosinase. The experiment can be described thus: Uncompetitive inhibition of mushroom tyrosinase using L-tyrosine as substrate by Dixon/Cornish-Bowden plot analysis.

As usually defined, the pIC50 is the IC50 on a negative log10 scale, so that one unit is a factor of ten. Lower therefore signals a large IC50. Regarding `COc1cc(C(=O)OC[C@H]2O[C@H]3c4c(cc(OC)c(OC)c4OC)C(=O)O[C@@H]3[C@@H](O)[C@@H]2O)ccc1O`, the negative logarithm of the IC50 (pIC50) against Tyrosinase [1] is < 4.00. Usually pKi stands for the negative decadic logarithm of the Ki, by convention in mol/L. Regarding `COc1cc2c(c(OC)c1OC)[C@@H]1O[C@H](COC(=O)c3ccc(O)cc3)[C@@H](O)[C@H](O)[C@H]1OC2=O`, the pIC50 on Tyrosinase [1] was 4.50. The negative-log Ki (pKi) on Tyrosinase [2] is 4.13; on Tyrosinase [3], 3.92. The inhibition entry in experiment [4] is “Dose-dependent effect”. With `COc1cc(OC)cc(C(=O)O)c1` [3,5-DIMETHOXYBENZOIC ACID], the pIC50 against Tyrosinase [1] was < 4.00. Consider `COc1ccc(C(=O)OC[C@H]2O[C@H]3c4c(cc(OC)c(OC)c4OC)C(=O)O[C@@H]3[C@@H](O)[C@@H]2O)cc1`, for which the negative-log IC50 (pIC50) against Tyrosinase [1] is < 4.00. Still for that read-out and setting: next, `COc1c(O)cc2c(c1O)[C@@H]1O[C@H](COC(=O)c3ccc(O)c(O)c3)[C@@H](O)[C@H](O)[C@H]1OC2=O`: 4.76; `COc1ccc(C(=O)O)cc1OC` [VERATRIC ACID]: < 4.00; `COc1ccc(C(=O)O)cc1O` [ISOVANILLIC ACID]: < 4.00. On the same count and under the same terms, under `COc1cc(C(=O)OC[C@H]2O[C@H]3c4c(cc(OC)c(OC)c4OC)C(=O)O[C@@H]3[C@@H](O)[C@@H]2O)cc(OC)c1O` stands < 4.00. `COc1ccc(C(=O)OC[C@H]2O[C@H]3c4c(cc(OC)c(OC)c4OC)C(=O)O[C@@H]3[C@@H](O)[C@@H]2O)cc1O` gave a pIC50 against Tyrosinase [1] of 4.41. The negative-log Ki (pKi) at Tyrosinase [5] was 3.97. Besides, the inhibition result in experiment [4] is “Dose-dependent effect”. With `O=C(O)c1ccc(O)c(O)c1` [PROTOCATECHUIC ACID], the pIC50 on Tyrosinase [1] is < 4.00.

Take `COc1cc(OC)cc(C(=O)OC[C@H]2O[C@H]3c4c(cc(OC)c(OC)c4OC)C(=O)O[C@@H]3[C@@H](O)[C@@H]2O)c1`: the negative-log IC50 (pIC50) against Tyrosinase [1] is < 4.00. On Tyrosinase [1], `COc1cc2c(c(OC)c1OC)[C@@H]1O[C@H](COC(=O)c3ccc(O)c(O)c3)[C@@H](O)[C@H](O)[C@H]1OC2=O` showed a negative-log IC50 (pIC50) of 5.04. For the same molecule, the pKi is 5.35 at Tyrosinase [2] and 5.14 at Tyrosinase [3]. Further, the inhibition entry in experiment [4] is “Dose-dependent effect”.

As to `COc1ccc(C(=O)OC[C@H]2O[C@H]3c4c(cc(OC)c(OC)c4OC)C(=O)O[C@@H]3[C@@H](O)[C@@H]2O)cc1OC`, on Tyrosinase [1], the negative-log IC50 (pIC50) is < 4.00. For `COc1cc2c(c(OC)c1OC)[C@H]1O[C@@H](CO)[C@H](O)[C@@H](O)[C@@H]1OC2=O`, the pIC50 against Tyrosinase [1] was < 4.00.

For `COc1cc2c(c(OC)c1OC)[C@@H]1O[C@H](COC(=O)c3ccccc3)[C@@H](O)[C@H](O)[C@H]1OC2=O`, the negative-log IC50 (pIC50) against Tyrosinase [1] was < 4.00. On the same count and under the same terms, next, `O=C(O)c1ccc(O)cc1` [PARABEN]: < 4.00; `COc1cc(C(=O)O)cc(OC)c1O` [SYRINGIC ACID]: < 4.00; `COc1ccc(C(=O)O)cc1` [p-ANISIC ACID]: < 4.00. `O=C(O)c1ccccc1` [BENZOIC ACID]: the pIC50 on Tyrosinase [1] was < 4.00. On the same count and under the same terms, next, `COc1c(O)cc2c(c1O)[C@@H]1O[C@H](CO)[C@@H](O)[C@H](O)[C@H]1OC2=O` [BERGENIN]: < 4.00.
